Reference: US20030162661A1, “2,4-Diamino-1,3,5-triazines, their preparation, and their use as herbicides and plant growth regulators” (priority 1998, published 2003)

Key:
[1] = test system: harmful plants such as Stellaria media, Lolium multiflorum, Amaranthus retroflexus, Sinapis alba, Avena sativa and Setaria viridis; assay: Pre-emergence effect on weeds (greenhouse pot test, visual scoring); assay type: in vivo; details: applied pre-emergence at an application rate of 1 kg or less of active substance per hectare; scored visually after 3 to 4 weeks vs untreated controls;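 note: scored as plant damage or reduced emergence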
Source text: 1 Pre-emergence Effect on Weeds
Seeds or rhizome pieces of monocotyledonous and dicotyledonous weeds plants are placed in sandy loam soil in plastic pots and covered with soil. The compounds according to the invention which are formulated in the form of wettable powders or emulsion concentrates are then applied to the surface of the soil cover in the form of an aqueous suspension or emulsion at an application rate of 600 to 800 l of water/ha (converted), in various dosages.

[2] = test system: harmful plants such as Sinapis alba, Echinochloa crus- galli, Lolium multiflorum, Stellaria media, Cyperus iria, Amaranthus retroflexus, Setaria viridis and …; assay: Post-emergence effect on weeds (greenhouse pot test, visual scoring); assay type: in vivo; details: applied post-emergence (three-leaf stage) at an application rate of 1 kg and less of active substance per hectare; scored visually after about 3 to 4 weeks vs untreated controls
Procedure: 2. Post-emergence Effect on Weeds
Seeds or rhizome pieces of monocotyledonous and dicotyledonous weeds are placed in sandy loam soil in plastic pots, covered with soil and grown in the greenhouse under good growth conditions. Three weeks after sowing, the test plants are treated in the three-leaf stage. The compounds according to the invention which are formulated as wettable powders or as emulsion concentrates are sprayed in various dosages on the green parts of the plants at an application rate of 600 to 800 l of water/ha (converted). After the test plants have remained in the greenhouse for about 3 to 4 weeks under ideal growth conditions, the effect of the preparations is scored visually by comparison with untreated controls. The agents according to the invention also have a good herbicidal post-emergence action against a broad range of economically important grass weeds and dicotyledonous weeds.

SMILES | herbicidal action against harmful plants, pre-emergence [1] | herbicidal action against harmful plants, post-emergence [2]
Cc1nc(N)nc(NC(CCc2ccccc2)C2CCC2)n1 (stereo not drawn) [Example 4-3] | very good herbicidal action | very good herbicidal action
CC(C)c1nc(N)nc(NC(CCc2cccc(Cl)c2)C2CCC2)n1 (stereo not drawn) [Example 4-10] | very good herbicidal action | very good herbicidal action
CC(C)(F)c1nc(N)nc(NC(CCc2cccc(Cl)c2)C2CCC2)n1 (stereo not drawn) [Example 4-11] | very good herbicidal action | very good herbicidal action
Cc1ccccc1CCC(Nc1nc(N)nc(C(C)(C)F)n1)C1CCC1 (stereo not drawn) [Example 4-25] | very good herbicidal action | very good herbicidal action
Cc1ccccc1CCC(Nc1nc(N)nc(C(C)C)n1)C1CCC1 (stereo not drawn) [Example 4-26] | very good herbicidal action | very good herbicidal action
CC(C)c1nc(N)nc(NC(CCc2cccc(F)c2)C2CCC2)n1 (stereo not drawn) [Example 4-27] | very good herbicidal action | very good herbicidal action
CC(C)(F)c1nc(N)nc(NC(CCc2cccc(F)c2)C2CCC2)n1 (stereo not drawn) [Example 4-28] | very good herbicidal action | very good herbicidal action
Cc1cccc(CCC(Nc2nc(C)nc(N)n2)C2CCC2)c1 (stereo not drawn) [Example 4-29, 2-Amino-6-methyl-4-[3-(3-methylphenyl)-1-cyclobutyl-1-propylamino]1,3,5-triazine] | very good herbicidal action | very good herbicidal action
CC(C)c1nc(N)nc(NC(CCc2ccccc2)C2CCCC2)n1 (stereo not drawn) [Example 8-1] | very good herbicidal action | very good herbicidal action
CC(C)(F)c1nc(N)nc(NC(CCc2ccccc2)C2CCCC2)n1 (stereo not drawn) [Example 8-2] | very good herbicidal action | very good herbicidal action
CC(C)Cc1nc(N)nc(NC(CCc2ccccc2)C2CC2)n1 (stereo not drawn) [Example 9-1] | very good herbicidal action | very good herbicidal action
CCc1nc(N)nc(NC(CCc2ccccc2)C2CC2)n1 (stereo not drawn) [Example 9-2] | very good herbicidal action | very good herbicidal action
Cc1nc(N)nc(NC(CCc2ccccc2)C2CC2)n1 (stereo not drawn) [Example 9-3] | very good herbicidal action | very good herbicidal action
CC(C)(F)c1nc(N)nc(NC(CCc2cccc(C(F)(F)F)c2)C2CC2)n1 (stereo not drawn) [Example 9-6] | very good herbicidal action | very good herbicidal action
CC(C)(F)c1nc(N)nc(NC(CCc2cccc(Cl)c2)C2CC2)n1 (stereo not drawn) [Example 9-8] | very good herbicidal action | very good herbicidal action
CC(C)c1nc(N)nc(NC(CCc2cccc(C(F)(F)F)c2)C2CC2)n1 (stereo not drawn) [Example 9-11] | very good herbicidal action | very good herbicidal action
Cc1cccc(CCC(Nc2nc(N)nc(C(C)C)n2)C2CC2)c1 (stereo not drawn) [Example 9-12] | very good herbicidal action | very good herbicidal action
COc1cccc(CCC(Nc2nc(N)nc(C(C)C)n2)C2CC2)c1 (stereo not drawn) [Example 9-13] | very good herbicidal action | very good herbicidal action
COc1cccc(CCC(Nc2nc(N)nc(C(C)(C)F)n2)C2CC2)c1 (stereo not drawn) [Example 9-14] | very good herbicidal action | very good herbicidal action
Cc1cccc(CCC(Nc2nc(N)nc(CC(C)C)n2)C2CC2)c1 (stereo not drawn) [Example 9-15] | very good herbicidal action | very good herbicidal action

SMILES | herbicidal action against harmful plants, pre-emergence [1] | herbicidal action against harmful plants, post-emergence [2]
Cc1cccc(CCC(Nc2nc(N)nc(C(C)(C)F)n2)C2CC2)c1 (stereo not drawn) [Example 9-16] | very good herbicidal action | very good herbicidal action
Cc1cc(C)cc(CCC(Nc2nc(N)nc(C(C)(C)F)n2)C2CC2)c1 (stereo not drawn) [Example 9-17, 2-Amino-4-(1-fluoro-1-methylethyl)-6-[3-(3,5-dimethylphenyl)-1-cyclopropyl-1-propylamino]-1,3,5-triazine] | very good herbicidal action | very good herbicidal action
Cc1cc(C)cc(CCC(Nc2nc(N)nc(C(C)C)n2)C2CC2)c1 (stereo not drawn) [Example 9-18] | very good herbicidal action | very good herbicidal action
Nc1nc(NC(CCc2ccccc2)C2CC2)nc(-c2ccccc2)n1 (stereo not drawn) [Example 9-19] | very good herbicidal action | very good herbicidal action
CC(C)(F)c1nc(N)nc(NC(CCc2ccccc2)C2CC2(C)C)n1 (stereo not drawn) [Example 10-1] | very good herbicidal action | very good herbicidal action
CC(C)(F)c1nc(N)nc(NC(CCc2ccccc2)c2ccoc2)n1 (stereo not drawn) [Example 18-1] | very good herbicidal action | very good herbicidal action
CC(C)c1nc(N)nc(NC(CCc2ccccc2)c2ccoc2)n1 (stereo not drawn) [Example 18-2] | very good herbicidal action | very good herbicidal action
CC(C)(F)c1nc(N)nc(NC(CCc2ccccc2)c2ccccc2)n1 (stereo not drawn) [Example 18-3] | very good herbicidal action | very good herbicidal action
CC(C)c1nc(N)nc(NC(CCc2ccccc2)c2ccccc2)n1 (stereo not drawn) [Example 18-4] | very good herbicidal action | very good herbicidal action
CC(C)(F)c1nc(N)nc(NC(CCc2ccccc2)C2CCCO2)n1 (stereo not drawn) [Example 19-5] | very good herbicidal action | very good herbicidal action
CC(C)c1nc(N)nc(NC(CCc2ccccc2)C2CCCO2)n1 (stereo not drawn) [Example 19-6] | very good herbicidal action | very good herbicidal action
CC(C)(F)c1nc(N)nc(NC(CCc2ccccc2)C2CCOC2)n1 (stereo not drawn) [Example 20-1] | very good herbicidal action | very good herbicidal action
CC(C)c1nc(N)nc(NC(CCc2ccccc2)C2CCOC2)n1 (stereo not drawn) [Example 20-2] | very good herbicidal action | very good herbicidal action
CC(F)c1nc(N)nc(NC(CCCc2ccccc2)C2CC2)n1 (stereo not drawn) [Example 22-3] | very good herbicidal action | very good herbicidal action
Cc1nc(N)nc(NC(CCCc2ccccc2)C2CC2)n1 (stereo not drawn) [Example 22-8] | very good herbicidal action | very good herbicidal action
CCc1nc(N)nc(NC(CCCc2ccccc2)C2CC2)n1 (stereo not drawn) [Example 22-9] | very good herbicidal action | very good herbicidal action
CC(C)c1nc(N)nc(NC(CCCc2ccccc2)C2CC2)n1 (stereo not drawn) [Example 22-11] | very good herbicidal action | very good herbicidal action
CC(C)(F)c1nc(N)nc(NC(CCCc2ccccc2)C2CC2)n1 (stereo not drawn) [Example 22-12, 2-Amino-4-(1-fluoro-1-methylethyl)-6-(1-phenyl-4-cyclopropyl-4-butylamino)-1,3,5-triazine] | very good herbicidal action | very good herbicidal action
CC(C)(F)c1nc(N)nc(NC(CCCc2cccc(Cl)c2)C2CC2)n1 (stereo not drawn) [Example 22-18] | very good herbicidal action | very good herbicidal action
